Key:
[1] = test system: angiotensin II (AII) vasopressor response; experiment: AII challenge: antagonism of the vasopressor response of angiotensin II in conscious Okamoto-Aoki SHR; type: in vivo, rat (Okamoto-Aoki SHR); conditions: for inhibition in vivo at 1 mg/kg / inhibition in vivo at 2 mg/kg: Rattus norvegicus, iv
Summary of the method: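 Conscious male Okamoto-Aoki spontaneously hypertensive rats, 16-20 weeks old and about 330 g, received caudal arterial and venous cannulae under local 2% procaine anesthesia. They were kept upright in restraining cages while pulsatile blood pressure was recorded by pressure transducer. The systolic pressure rise to i.v. angiotensin II was measured before and after test compound dosing. Inhibition was expressed relative to each rat's predose response, taken as 100%.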

angiotensin II receptors = experiment: Angiotensin II receptor binding (displacement of 3H-angiotensin II), rat adrenocortical microsomes; conditions: 2 nM 3H-angiotensin II
Protocol: The source of the angiotensin II receptors utilized in the screen is from rat adrenocortical microsomes. The cortices are placed in ice cold sucrose buffer (0.2 m sucrose, 1 mm EDTA, 10 mm Trizma base, pH 7.4) and homogenized in a chilled ground glass tissue grinder. The homogenate is centrifuged at 3000×g for 10 min. and the resultant supernatant is decanted through cheesecloth and centrifuged at 12,000×g for 3 min. […] Binding assays are performed by incubating aliquots of freshly prepared microsomes in the absence or presence of compound (40 uM final concentration). Ten minutes later, ^3 H-angiotensin II is added to each tube (2 nM final concentration) and incubated for 60 minutes at […]. The reaction is terminated by the addition of 3 ml of cold assay buffer without albumin and the bound and free radioactivity is separated rapidly through glass-fiber filters prewetted with assay buffer. After two additional 3 ml rinses, the filters are placed in scintillation fluid and counted in a scintillation counter to determine trapped radioactivity.

In the case of `CCCCc1nc2ccc(C(OC)c3ccccc3)cc2c(=O)n1Cc1ccc(-c2ccccc2-c2nnn[nH]2)cc1` (stereo not shown) [Example 56, 2-Butyl-6-(methoxyphenylmethyl)-3-[[2'-(1H-tetrazol-5-yl)[1,1'-biphenyl]-4-yl]methyl]-4(3H)-quinazolinone], the “Response change (systolic BP increase to AII)” value ([1]; 1 mg/kg iv, AII .025 ug/kg, 15 min) is reported as 18 mmHg, the “Response change (systolic BP increase to AII)” value ([1]; 1 mg/kg iv, AII .025 ug/kg, 30 min) is reported as 27 mmHg and the “Response change (systolic BP increase to AII)” value ([1]; 1 mg/kg iv, AII .025 ug/kg, 60 min) is reported as 20 mmHg. The “Response change (systolic BP increase to AII)” value ([1]; 1 mg/kg iv, AII .05 ug/kg, 15 min) was 15 mmHg, the “Response change (systolic BP increase to AII)” value ([1]; 1 mg/kg iv, AII .05 ug/kg, 30 min) was 15 mmHg and the “Response change (systolic BP increase to AII)” value ([1]; 1 mg/kg iv, AII .05 ug/kg, 60 min) was 20 mmHg. For the same compound, the “Response change (systolic BP increase to AII)” value ([1]; 1 mg/kg iv, AII .1 ug/kg, 15 min) was 15 mmHg, the “Response change (systolic BP increase to AII)” value ([1]; 1 mg/kg iv, AII .1 ug/kg, 30 min) was 20 mmHg and the “Response change (systolic BP increase to AII)” value ([1]; 1 mg/kg iv, AII .1 ug/kg, 60 min) was 30 mmHg. The “Response change (systolic BP increase to AII)” value ([1]; 2 mg/kg iv, AII .025 ug/kg, 90 min) was 10 mmHg, the “Response change (systolic BP increase to AII)” value ([1]; 2 mg/kg iv, AII .025 ug/kg, 120 min) was 20 mmHg and the “Response change (systolic BP increase to AII)” value ([1]; 2 mg/kg iv, AII .025 ug/kg, 150 min) was 15 mmHg. For the same compound, the “Response change (systolic BP increase to AII)” value ([1]; 2 mg/kg iv, AII .05 ug/kg, 90 min) was 15 mmHg, the “Response change (systolic BP increase to AII)” value ([1]; 2 mg/kg iv, AII .05 ug/kg, 120 min) was 15 mmHg and the “Response change (systolic BP increase to AII)” value ([1]; 2 mg/kg iv, AII .05 ug/kg, 150 min) was 10 mmHg. The “Response change (systolic BP increase to AII)” value ([1]; 2 mg/kg iv, AII .1 ug/kg, 90 min) was 5 mmHg, the “Response change (systolic BP increase to AII)” value ([1]; 2 mg/kg iv, AII .1 ug/kg, 120 min) was 15 mmHg and the “Response change (systolic BP increase to AII)” value ([1]; 2 mg/kg iv, AII .1 ug/kg, 150 min) was 20 mmHg. The inhibition in vivo at 1 mg/kg ([1]; 0.25 h, 1 mg/kg iv, AII .025 ug/kg, 15 min) was 40%, the inhibition in vivo at 1 mg/kg ([1]; 0.25 h, 1 mg/kg iv, AII .05 ug/kg, 15 min) was 57% and the inhibition in vivo at 1 mg/kg ([1]; 0.25 h, 1 mg/kg iv, AII .1 ug/kg, 15 min) was 57%. The inhibition in vivo at 1 mg/kg ([1]; 0.5 h, 1 mg/kg iv, AII .025 ug/kg, 30 min) was 27%, the inhibition in vivo at 1 mg/kg ([1]; 0.5 h, 1 mg/kg iv, AII .05 ug/kg, 30 min) was 57% and the inhibition in vivo at 1 mg/kg ([1]; 0.5 h, 1 mg/kg iv, AII .1 ug/kg, 30 min) was 43%. It also gave an inhibition in vivo at 1 mg/kg ([1]; 1 h, 1 mg/kg iv, AII .025 ug/kg, 60 min) of 33%, an inhibition in vivo at 1 mg/kg ([1]; 1 h, 1 mg/kg iv, AII .05 ug/kg, 60 min) of 43% and an inhibition in vivo at 1 mg/kg ([1]; 1 h, 1 mg/kg iv, AII .1 ug/kg, 60 min) of 14%. It also gave an inhibition in vivo at 2 mg/kg ([1]; 1.5 h, 2 mg/kg iv, AII .025 ug/kg, 90 min) of 67%, an inhibition in vivo at 2 mg/kg ([1]; 1.5 h, 2 mg/kg iv, AII .05 ug/kg, 90 min) of 57% and an inhibition in vivo at 2 mg/kg ([1]; 1.5 h, 2 mg/kg iv, AII .1 ug/kg, 90 min) of 86%. The inhibition in vivo at 2 mg/kg ([1]; 2 h, 2 mg/kg iv, AII .025 ug/kg, 120 min) was 33%, the inhibition in vivo at 2 mg/kg ([1]; 2 h, 2 mg/kg iv, AII .05 ug/kg, 120 min) was 57% and the inhibition in vivo at 2 mg/kg ([1]; 2 h, 2 mg/kg iv, AII .1 ug/kg, 120 min) was 57%. It also gave an inhibition in vivo at 2 mg/kg ([1]; 2.5 h, 2 mg/kg iv, AII .025 ug/kg, 150 min) of 50%, an inhibition in vivo at 2 mg/kg ([1]; 2.5 h, 2 mg/kg iv, AII .05 ug/kg, 150 min) of 71% and an inhibition in vivo at 2 mg/kg ([1]; 2.5 h, 2 mg/kg iv, AII .1 ug/kg, 150 min) of 43%. It also gave an IC50 (angiotensin II receptors) of 8.6 nM.

Reference: patent publication US5405849A, “Angiotensin II receptor blocking 2,3,6 substituted quinazolinones” (American Cyanamid Company, priority 1993, dated 1995)
